Reference: ChEMBL document CHEMBL4311962, “Benzofuran-isatin hybrids and their in vitro anti-mycobacterial activities against multi-drug resistant Mycobacterium tuberculosis” (Eur J Med Chem, 2019)
In brackets after ≈: the same amount, converted by molar mass.

Columns and labels:
[1] = tested on: Mycobacterium tuberculosis; test: Antimycobacterial activity against multidrug (ethambutol, INH and RIF)-resistant Mycobacterium tuberculosis clinical isolate 2 assessed as inhibition of bacterial growth incubated for 7 days by rapid direct susceptibility test technique; format: functional; conditions: 168 h
[2] = tested on: Mycobacterium tuberculosis; test: Antimycobacterial activity against multidrug (INH and RIF)-resistant Mycobacterium tuberculosis clinical isolate 1 assessed as inhibition of bacterial growth incubated for 7 days by rapid direct susceptibility test technique; format: functional; conditions: 168 h
[3] = Selectivity index, ratio of CC50 for CHO cells to MIC for multidrug (INH and RIF)-resistant Mycobacterium tuberculosis clinical isolate 1; format: toxicity; conditions: hamster, read-out: Selectivity Index
[4] = tested on: Mycobacterium tuberculosis; test: Potency index, ratio of ciprofloxacin MIC to compound MIC for multidrug (ethambutol, INH and RIF)-resistant Mycobacterium tuberculosis clinical isolate 2 incubated for 7 days by rapid direct susceptibility test technique; format: functional
[5] = tested on: Mycobacterium tuberculosis; test: Potency index, ratio of isoniazid MIC to compound MIC for multidrug (ethambutol, INH and RIF)-resistant Mycobacterium tuberculosis clinical isolate 2 incubated for 7 days by rapid direct susceptibility test technique; format: functional
[6] = tested on: Mycobacterium tuberculosis; test: Potency index, ratio of rifampicin MIC to compound MIC for multidrug (ethambutol, INH and RIF)-resistant Mycobacterium tuberculosis clinical isolate 2 incubated for 7 days by rapid direct susceptibility test technique; format: functional
[7] = tested on: Mycobacterium tuberculosis; test: Potency index, ratio of ciprofloxacin MIC to compound MIC for multidrug (INH and RIF)-resistant Mycobacterium tuberculosis clinical isolate 1 incubated for 7 days by rapid direct susceptibility test technique; format: functional
[8] = tested on: Mycobacterium tuberculosis; test: Potency index, ratio of isoniazid MIC to compound MIC for multidrug (INH and RIF)-resistant Mycobacterium tuberculosis clinical isolate 1 incubated for 7 days by rapid direct susceptibility test technique; format: functional
[9] = tested on: Mycobacterium tuberculosis; test: Potency index, ratio of rifampicin MIC to compound MIC for multidrug (INH and RIF)-resistant Mycobacterium tuberculosis clinical isolate 1 incubated for 7 days by rapid direct susceptibility test technique; format: functional

| Structure (SMILES) | MIC [1] [µg/mL] | MIC [2] [µg/mL] | selectivity ratio [3] | Ratio [4] | Ratio [5] | Ratio [6] | Ratio [7] | Ratio [8] | Ratio [9] |
| --- | --- | --- | --- | --- | --- | --- | --- | --- | --- |
| CCOC(=O)c1c(-c2ccc(OC)cc2)oc2ccc(OCCCCN3C(=O)C(=O)c4ccccc43)cc12 | 4 (≈ 7.79 µM) | 2 (≈ 3.89 µM) | 128 |  |  |  |  |  |  |
| CCOC(=O)c1c(-c2ccc(OC)cc2)oc2ccc(OCCCN3C(=O)C(=O)c4cc(F)ccc43)cc12 | 2 (≈ 3.86 µM) | 2 (≈ 3.86 µM) | 32 |  |  |  |  |  |  |
| CCOC(=O)c1c(-c2ccc(OC)cc2)oc2ccc(OCCCCCCN3C(=O)/C(=N/NC(N)=S)c4cc(F)ccc43)cc12 | 0.25 (≈ 0.395 µM) | 0.125 (≈ 0.198 µM) | 1024 | 8 - 16 | >=512 | >=512 | 8 - 16 | >=512 | >=512 |
| CCOC(=O)c1c(-c2ccccc2)oc2ccc(OCCCCCCN3C(=O)C(=O)c4ccccc43)cc12 | 2 (≈ 3.91 µM) | 1 (≈ 1.95 µM) | 128 |  |  |  |  |  |  |
| CCOC(=O)c1c(-c2ccc(F)cc2)oc2ccc(OCCCCCCN3C(=O)/C(=N\O)c4cc(OC)ccc43)cc12 | 1 (≈ 1.74 µM) | 4 (≈ 6.96 µM) | 128 |  |  |  |  |  |  |
| CCOC(=O)c1c(-c2ccc(F)cc2)oc2ccc(OCCCN3C(=O)/C(=N/O)c4ccccc43)cc12 | 4 (≈ 7.96 µM) | 8 (≈ 15.9 µM) | 32 |  |  |  |  |  |  |
| CCOC(=O)c1c(-c2ccc(F)cc2)oc2ccc(OCCN3C(=O)C(=O)c4ccccc43)cc12 | 4 (≈ 8.45 µM) | 4 (≈ 8.45 µM) | 32 |  |  |  |  |  |  |
| CCOC(=O)c1c(-c2ccc(F)cc2)oc2ccc(OCCN3C(=O)C(=O)c4cc(OC)ccc43)cc12 | 4 (≈ 7.94 µM) | 8 (≈ 15.9 µM) | 64 |  |  |  |  |  |  |
| CCOC(=O)c1c(-c2ccccc2)oc2ccc(OCCCN3C(=O)C(=O)c4ccccc43)cc12 | 8 (≈ 17 µM) | 4 (≈ 8.52 µM) | 63 |  |  |  |  |  |  |
| CCOC(=O)c1c(-c2ccccc2)oc2ccc(OCCCN3C(=O)/C(=N/O)c4ccccc43)cc12 | 16 (≈ 33 µM) | 8 (≈ 16.5 µM) | 64 |  |  |  |  |  |  |
| CCOC(=O)c1c(-c2ccc(F)cc2)oc2ccc(OCCCCCCN3C(=O)/C(=N/OC)c4ccccc43)cc12 | 0.25 (≈ 0.448 µM) | 0.5 (≈ 0.895 µM) | 258 |  |  |  |  |  |  |
| CCO/N=C1\C(=O)N(CCCCCCOc2ccc3oc(-c4ccc(F)cc4)c(C(=O)OCC)c3c2)c2ccc(OC)cc21 | 1 (≈ 1.66 µM) | 2 (≈ 3.32 µM) | 128 |  |  |  |  |  |  |
| NNC(=O)c1ccncc1 [ISONIAZID] | > 128 | > 128 | < 2 |  |  |  |  |  |  |
| CCOC(=O)c1c(-c2ccccc2)oc2ccc(OCCN3C(=O)C(=O)c4cc(F)ccc43)cc12 | 2 (≈ 4.22 µM) | 4 (≈ 8.45 µM) | 16 |  |  |  |  |  |  |
| CCOC(=O)c1c(-c2ccccc2)oc2ccc(OCCCN3C(=O)C(=O)c4cc(OC)ccc43)cc12 | 16 (≈ 32 µM) | 8 (≈ 16 µM) | 64 |  |  |  |  |  |  |
| CCOC(=O)c1c(-c2ccc(F)cc2)oc2ccc(OCCCCCCN3C(=O)C(=O)c4cc(OC)ccc43)cc12 | 2 (≈ 3.57 µM) | 2 (≈ 3.57 µM) | 128 |  |  |  |  |  |  |
| CCOC(=O)c1c(-c2ccccc2)oc2ccc(OCCCN3C(=O)/C(=N/O)c4cc(OC)ccc43)cc12 | 16 (≈ 31.1 µM) | 16 (≈ 31.1 µM) | 32 |  |  |  |  |  |  |
| CO[C@H]1/C=C/O[C@@]2(C)Oc3c(C)c(O)c4c(O)c(c(/C=N/N5CCN(C)CC5)c(O)c4c3C2=O)NC(=O)/C(C)=C\C=C\[C@H](C)[C@H](O)[C@@H](C)[C@@H](O)[C@@H](C)[C@H](OC(C)=O)[C@@H]1C [RIFAMPIN] | > 128 | 64 (≈ 77.8 µM) | 8 |  |  |  |  |  |  |
| CCOC(=O)c1c(-c2ccc(F)cc2)oc2ccc(OCCCN3C(=O)C(=O)c4ccccc43)cc12 | 2 (≈ 4.1 µM) | 1 (≈ 2.05 µM) | 256 |  |  |  |  |  |  |
| CNC(=O)c1c(-c2ccc(O)cc2)oc2ccc(O)c(CN3CCCCC3)c12 | < 0.06 | < 0.06 | > 16400 |  |  |  |  |  |  |
| CCOC(=O)c1c(-c2ccc(OC)cc2)oc2ccc(OCCCCCN3C(=O)C(=O)c4ccccc43)cc12 | 1 (≈ 1.9 µM) | 2 (≈ 3.79 µM) | 64 |  |  |  |  |  |  |
| CCOC(=O)c1c(-c2ccc(F)cc2)oc2ccc(OCCN3C(=O)C(=O)c4cc(F)ccc43)cc12 | 2 (≈ 4.07 µM) | 2 (≈ 4.07 µM) | 32 |  |  |  |  |  |  |
